Molecular target: T1, HLA-A2.1 multimers (Homo sapiens, UniProt P04439, D140Y/D185E/D98H/E176V/E277Q/G131W/G231S/I119V/I121R/I166T/I218V/N151K/N90K/P208A/P217A/Q86G/Q94H/R138H/R169H)
T1 construct: made in house
Type: physicochemical

Row | Substance | effect of UV exposure on amount of MHC complex recovered
1 | GIL*FVFTL (SEQ ID NO:3) [G4*] | substantial reduction in the amount of MHC complex recovered
2 | GILGFVF*L (SEQ ID NO:4) [T8*] | substantial reduction in the amount of MHC complex recovered

Source: patent publication US9850287B2, “Means and methods for breaking noncovalent binding interactions between molecules” (Het Nederlands Kanker Instituut, priority 2005, dated 2017)
